Measurements taken from US5070210A, “Novel ketenimines as intermediates for insecticides” (ICI Americas Inc., priority 1990, dated 1991).

Experiments:
Assay type in all cases: in vivo
[1] = test system: Rice water weevil [Lissorhoptrus oryzophilus (Kuschel)]; assay: Rice water weevil insecticidal test; conditions: topical, μg per weevil; 48 hours
Description: The compounds in Tables 1 and 2 above were tested for insecticidal activity using the following testing procedures. LC50 values, based on the results of these tests and calculated according to dosage-mortality curves, are expressed in Table 3.
Rice water weevil [Lissorhoptrus oryzophilus (Kuschel)]:
Test compounds were diluted in acetone. Droplets (1 μl) of test solutions were applied to the ventral abdomens of ten female adult weevils. The treated weevils were placed in containers with wet cotton balls and rice foliage. The containers were covered and kept at a temperature of about 25° C. Mortality was recorded after 48 hours. Test concentrations ranged from […] or 2.5 μg per weevil down to that at which 50% mortality occurred. The LC50 values are expressed below in Table 3 under the heading "RWW" in terms of μg of test compound per weevil.

[2] = test system: Tobacco Budworm [Heliothis virescens (Fabricius)] eggs; assay: Tobacco budworm egg test; conditions: 2-day old eggs, percent in solution
In short: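 Step 1: dip 2-day old egg patches in acetone test solutions (top concentration 0.1%). Step 2: hold in dishes with rearing medium at 78° F. Step 3: record mortality after control hatch and feeding.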

[3] = test system: Cabbage Looper [Trichoplusia ni (Hubner)]; assay: Cabbage looper insecticidal test; conditions: second-instar larvae, percent in solution; 3-5 days
In short: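 Squash cotyledons dipped in test solution (acetone-water 50-50, ≤0.1%), dried, offered to 5 second-instar larvae; mortality after 3-5 days gives LC50.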

[4] = test system: Housefly [Musca domestica]; assay: Housefly insecticidal test; conditions: μg per 25 female flies; mortality after 48 hours
In short: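 Residual contact test: acetone dilution, 0.01% peanut oil spreader, solvent evaporated; 25 ♀ flies (1-2 d old) per cage; sugar-water plug; 48 h mortality read. LC50 in μg/25 female flies, from dose-mortality curves; top dose 100 μg/25 flies.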

[5] = test system: Beet Armyworm (Spodoptera exigua); assay: Beet armyworm insecticidal test; conditions: second-instar larvae, percent in solution; five days
In short: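 Sugar beet leaves dipped 2–3 s in compound diluted in 50:50 acetone-water, dried, then infested with five second-instar larvae in humid petri dishes. Mortality scored at 5 days; concentrations from 0.1% downward. LC50 from dosage-mortality curves, expressed as percent compound in solution.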

[6] = test system: Aster Leafhopper [Macrosteles fascifrens (Stal)]; assay: Aster leafhopper insecticidal test; conditions: adults/nymphs, percent in solution; 48 hours
In short: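 Three ~10 cm oat seedlings per cup were dipped 2-3 seconds in 50-50 acetone-water compound solutions, dried, and caged with ten adult/nymph leafhoppers. Mortality was counted after 48 hours at concentrations from 0.05% downward. LC50, as percent compound in solution, came from dosage-mortality curves.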

[7] = test system: Tobacco Budworm [Heliothis virescens (Fabricius)] larvae; assay: Tobacco budworm contact test; conditions: second-instar larvae, percent in solution, 5 days
In short: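 Cotton cotyledons dipped 2–3 s in compound in 50-50 acetone-water, dried, then infested with 5 second-instar larvae and held 5 days at high humidity. Mortality scored; LC50 from dosage-mortality curves, expressed as percent compound in solution, concentrations from 0.1% downward.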

[8] = test system: Maize weevil [Sitophilus Zeamais (Motschulsky)]; assay: Maize weevil insecticidal test; conditions: adult weevils, percent in solution; 48 hours
In short: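 LC50, in percent of compound in solution, was derived from dosage-mortality curves after 48 h at about 25 °C. Ten adult weevils per container fed on four corn seeds briefly immersed in acetone:water (50:50) solutions of up to 0.01% and dried.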

SMILES	LC50, RWW [1] [µg]	LC50, TBW, E (TBW-E) [2] [%]	LC50, CL [3] [%]	LC50, HF [4] [µg]	LC50, BAW [5] [%]	LC50, LH [6] [%]	LC50, TBW, C (TBW-C) [7] [%]	LC50, MW [8] [%]
Fc1ccc(N=C(OCc2cccc(Oc3ccccc3)c2)C2CC2)cc1Cl [Compound 113]	> 2.5	0.1	0.005	15				
CC(C)C(=Nc1ccc(C(C)C)cc1)OCc1cccc(Oc2ccccc2)c1 [Compound 144]		0.05	0.002	100	> 0.01	0.0006	0.006	> 0.01
CC(C)C(=Nc1ccc2c(c1)OCO2)OCc1cccc(Oc2ccc(F)cc2)c1 [Compound 176]		0.05	0.0005	1.8	0.0035	> 0.05	0.002	0.009
CC(C)C(=Nc1ccc(F)c(Cl)c1)OCc1cc(Oc2ccc(F)cc2)ccc1F [Compound 230]	> 2.5	0.1	0.0004	36				0.038
CC(C)C(=Nc1ccc(F)c(Br)c1)OCc1cccc(Oc2ccccc2)c1 [Compound 254]	> 2.5	0.026	0.001	6				
CC(C)C(=Nc1ccc(F)c(Cl)c1)OCc1cccc(Oc2ccc(F)cc2)c1F [Compound 262]	> 2.5	> 0.1	0.0004	26				0.005
CC(C)C(=Nc1cccc(C(F)(F)F)c1)OCc1ccc(F)c(Oc2ccc(F)cc2)c1 [Compound 268]		0.023	0.000025	4	0.001	0.0005	0.0005	> 0.01
CC(C)C(=Nc1cccc(Cl)c1)OCc1cccc(Oc2ccc(Cl)cc2)c1 [Compound 270]		> 0.01	0.00025	12	0.005	0.003	> 0.0015	> 0.01
CC(C)C(=Nc1cccc(I)c1)OCc1ccc(F)c(Oc2ccc(F)cc2)c1 [Compound 279]		0.016	0.00008	4	0.0025	0.0003	0.007	> 0.01
CC(C)(F)C(=Nc1ccc(F)c(Cl)c1)OCc1ccc(F)c(Oc2ccc(F)cc2)c1 [Compound 310]	> 2.5	0.015	0.00006	4.5				
CC(C)C(=Nc1ccc(C(F)(F)F)cc1)OCc1ccc(F)c(Oc2ccc(F)cc2)c1 [Compound 314]	0.11	0.012	0.00005	21				
CC(C)C(=Nc1ccc(F)c(Cl)c1)OCc1ccc(F)c(Oc2ccc(F)c(F)c2)c1 [Compound 346]		> 0.1	> 0.1	7.2	> 0.1	0.05	0.0002	> 0.01
CC(C)C(=Nc1ccc(OC(F)(F)F)cc1)OCc1ccc(F)c(Oc2ccc(F)c(F)c2)c1 [Compound 347]		> 0.1	0.000075	30	0.00075	0.0002	0.0001	> 0.01
CC(C)C(=Nc1ccc(F)c(F)c1F)OCc1cccc(Oc2ccc(F)cc2)c1 [Compound 348]		> 0.1	0.0002	8	> 0.1	0.05	0.00075	> 0.01
CCOc1ccc(N=C(OCc2ccc(F)c(Oc3ccc(Cl)cc3)c2)C(C)C)cc1Cl [Compound 369]	> 2.5	> 0.1	0.0016	> 100				> 0.01
CCOc1ccc(N=C(OCc2ccc(F)c(Oc3ccccc3)c2)C(C)C)cc1Cl [Compound 370]	> 2.5	0.02	0.00034	< 100				> 0.01
CC(C)C(=Nc1cccc(F)c1)OCc1ccc(F)c(Oc2ccc(Cl)cc2)c1 [Compound 375]	> 2.5	0.04	> 0.1	7.9				> 0.01
CC(C)C(=Nc1ccc(Cl)c(Cl)c1)OCc1ccc(F)c(Oc2ccccc2)c1 [Compound 376]	0.1	0.02	0.00037	17				0.0061
CC(C)C(=Nc1ccc(C(F)(F)F)c(Br)c1)OCc1ccc(F)c(Oc2ccc(Cl)cc2)c1 [Compound 377]	> 2.5	> 0.1	0.00062	< 100				> 0.01
CC(C)C(=Nc1ccc(Br)cc1)OCc1ccc(F)c(Oc2ccc(Cl)cc2)c1 [Compound 378]	> 2.5	0.02	0.00034	< 100				> 0.01
CC(C)C(=Nc1ccc(Br)c(Cl)c1)OCc1cccc(Oc2ccc(Cl)cc2)c1 [Compound 380]	> 2.5	> 0.1	> 0.1	> 100				> 0.01
CC(C)C(=Nc1ccc(Br)c(Cl)c1)OCc1ccc(F)c(Oc2ccc(Cl)cc2)c1 [Compound 381]	> 2.5	0.018	0.00092	< 100				> 0.01
